Reference: US20110280827A1, “METHODS AND COMPOSITIONS FOR TREATING HEMATOLOGICAL MALIGNANCIES” (priority 2009, published 2011)

Tests used:
AML = conditions: in combination with chemotherapy, compared to chemotherapy alone; cited from earlier work
[1] = system: stroma-cocultured Jurkat cells, primary CLL cells, subset of AML cells harboring Flt3 mutation; conditions: in vitro, stroma coculture; cited from earlier work
[2] = system: Raji B-cell lymphoma cells; test: Disseminated Raji lymphoma model in SCID mice (survival, Kaplan-Meier); assay type: in vivo
Experimental: Four groups of 4- to 6-week-old SCID mice (8 animals each) were injected intravenously with 2×10^6 Raji B-cell lymphoma cells. The Raji cell line is a well-characterized human B-cell lymphoblastic line (CXCR4^+, CD19^+, CD20^+, CD22^+, CD52^+) derived from a patient with Burkitt's lymphoma (available from the American Tissue and Cell Collection, Manassas, Va.). Starting on day 7 after the injection, three of the four groups were administered subcutaneous AMD3465 daily (Monday-Friday regimen) at 0.1 mg/kg, 0.5 mg/kg or 1.0 mg/kg body weight.

[3] = system: B104 B-cell lymphoma cells; test: Disseminated B104 lymphoma model in SCID mice (survival, Kaplan-Meier); assay type: in vivo
Experimental: Five groups of 4- to 6-week-old SCID mice (8 animals each) were injected intravenously with 1×10^6 B104 B-cell lymphoma cells. […] Starting on day 7 after the injection, one group was administered CAMPATH® (alemtuzumab) weekly at 10 mg/kg; a second group was administered AMD3465 three times a week (Monday, Wednesday, Friday regimen) at 5.0 mg/kg; a third group was administered CAMPATH® (alemtuzumab) weekly at 10 mg/kg and AMD3465 three times a week (Monday, Wednesday, Friday regimen) at 1.0 mg/kg; and a fourth group was administered CAMPATH® (alemtuzumab) weekly at 10 mg/kg and AMD3465 three times a week (Monday, Wednesday, Friday regimen) at 5.0 mg/kg. […] The treatment was terminated on day 42.
Four groups of 4- to 6-week-old SCID mice (8 animals each) were injected intravenously with 1×10^6 B104 B-cell lymphoma cells. Starting on day 10 after the injection, one group was administered CAMPATH® (alemtuzumab) weekly at 10 mg/kg; a second group was administered AMD3465 daily (Monday-Friday regimen) at 5.0 mg/kg; and a third group was administered CAMPATH® (alemtuzumab) weekly at 10 mg/kg and AMD3465 daily (Monday-Friday regimen) at 5.0 mg/kg body weight.

pre-B-ALL cells = conditions: in vitro; cited from earlier work
[4] = in vivo; cited from earlier work

With `c1ccc(CNCc2ccc(CN3CCCNCCNCCCNCC3)cc2)nc1` [AMD3465] as the compound, how does the overall survival (AML) read?
Its overall survival is “improved overall survival”.

And the tumor burden (AML)?
The tumor burden was “decreased tumor burden”.

And the chemotherapy-induced apoptosis [1]?
The chemotherapy-induced apoptosis was “significantly enhanced”.

What about the mean survival ([2]; 5.0 mg/kg AMD3465 alone daily (M-F) from day 7) of the same compound?
Its mean survival is “did not have a significant effect”.

What about the “dose dependence of the survival effect” value ([2]; AMD3465 alone 0.1, 0.5, 1.0 mg/kg, reverse dose-response) of the same compound?
Its value is “stronger effect observed at the lower concentrations”.

And the mean survival ([2]; AMD3465 alone s.c. daily (M-F) at 0.1, 0.5 or 1.0 mg/kg from day 7, each concentration tested, vs control)?
Its mean survival is “significantly increased”.

What about the mean survival ([3]; 5.0 mg/kg AMD3465 alone daily (M-F) from day 10) of the same compound?
Its mean survival is “did not have a significant effect”.

What about the mean survival ([3]; 5.0 mg/kg AMD3465 alone three times a week (M, W, F) from day 7) of the same compound?
The mean survival was “did not have a significant effect”.

What does the source list for `c1cc(CN2CCCNCCNCCCNCC2)ccc1CN1CCCNCCNCCCNCC1` [AMD3100]?
overall survival (AML): improved overall survival; tumor burden (AML): decreased tumor burden; SDF-1/CXCL12 induced chemotaxis of pre-B-ALL cells into bone marrow stroma layers (pre-B-ALL cells): blocked; cytotoxic and antiproliferative effects of vincristine and dexamethasone (pre-B-ALL cells): enhanced; white blood cell count [4]: increasing the white blood cell count
